Source: patent publication US20080280891A1, “Anti-cancer agents and uses thereof” (Locus Pharmaceuticals, Inc., priority 2006, published 2008)

What was measured:
Format in all cases: cell-based
[1] = test system: MCF-7 breast cancer cells; assay: Cell cycle assay (Example 164), G2/M block in MCF-7 cells; details: Homo sapiens, MCF7; for activation at 0.1 µM: 24 h, flow cytometry (PI), Table 4
Protocol: (§1) The adherent MCF-7 breast cancer cells and NCI-H522 non small cell lung cancer cells were grown and maintained in EMEM cell culture media containing 10% fetal calf serum.
(§2) Cells were allowed to adhere for 24 hrs. After adherence, cell culture media was changed to that containing 0.5% FCS. Thirty minutes post-media change, test compounds were added at a concentration of either 1.0 or 0.1 μM (as specified in the Tables). Twenty-four hours after test agent addition, cells were analyzed for cell cycle status as described below.
(§3) Cell cycle status was analyzed by flow cytometry. Briefly, cells were collected and washed with FACs buffer (Pharmingen) and resuspended and fixed in 1 mL of 80% ethanol for 1 hr. Cells were washed with FACs buffer and resuspended in propidium iodide(PI)/RNase staining buffer (Pharmingen). PI is a fluorescent dye that labels nucleic acids such as DNA. The fluorescence within a cell (in the presence of PI) is proportional to the amount of DNA within a cell. The cell content of DNA is an indicator of status in the cell cycle. […] Cells in the S phase have DNA content that lies between these extremes.
(§4) For testing of cell cycle effects of test agents the percentage of cells within the G1 and G2/M phase were measured.

[2] = test system: NCI-H522 non small cell lung cancer cells; assay: Cell cycle assay (Example 164), G2/M block in NCI-H522 cells; details: Homo sapiens; for activation at 0.1 µM: 24 h, flow cytometry (PI), Table 4; for IC50: H522, footnotes * and ** of Table 4, read-out: IC50 (footnote mark in H522 G2/M Block)
Protocol: as §1, §2, §3, §4

[3] = test system: Jurkat T-cell leukemic cells; assay: Cell cycle assay (Example 163), G2/M block in Jurkat cells; details: Homo sapiens, Jurkat, 24 h, flow cytometry (PI), Table 2
Protocol: (§5) MCF-7 breast cancer cells and Jurkat T-cell leukemic cells were grown (and maintained) in EMEM and RPMI media, respectively, containing 10% fetal calf serum.
Test agents were added a concentration of 0.1 μM. Twenty-fours after test agent addition, cells were analyzed for cell cycle status as described below.
as §3, with “indices” for “indicator”
as §4

[4] = test system: MCF-7 breast cancer cells; assay: Cell cycle assay (Example 163), G2/M block in MCF-7 cells; details: Homo sapiens, MCF7, 24 h, flow cytometry (PI), Table 2
Protocol: as §5
as §2, with “1 μM. Twenty-fours” for “either 1.0 or 0.1 μM (as specified in the Tables). Twenty-four hours”
as §3, with “indices” for “indicator”
as §4

| Structure (SMILES) | activation at 0.1 µM [3] [%] | activation at 1 µM [4] [%] | further results |
| --- | --- | --- | --- |
| CC(=O)Nc1cc(-c2ccc(C(F)(F)F)cc2)cc(-c2cccc3[nH]ccc23)c1 [N-[5-(1H-Indol-4-yl)-4′-trifluoromethyl-biphenyl-3-yl]-acetamide] | – | – | activation at 0.1 µM [1]: < 50%; IC50 ([1]; MCF-7, footnotes * and ** of Table 4, read-out: IC50 (footnote mark in column MCF-7 G2/M Block)): 100 to 1000 nM; activation at 0.1 µM [2]: < 50%; IC50 [2]: 100 to 1000 nM |
| COC(=O)Nc1cc(C(=O)c2cc(C)nc(C)c2)cc(-c2cccc3[nH]ccc23)c1 [[3-(2,6-Dimethyl-pyridine-4-carbonyl)-5-(1H-indol-4-yl)-phenyl]-carbamic acid methyl ester] | – | – | activation at 0.1 µM [1]: ≥ 50%; activation at 0.1 µM [2]: ≥ 50% |
| Oc1cc(Nc2cccnc2)cc(-c2cccc3c2OCO3)c1 [3-Benzo[1,3]dioxol-4-yl-5-(pyridin-3-ylamino)-phenol] | ≥ 50 | ≥ 50 | – |
| O=C(c1cccnc1)c1cc(O)cc(-n2ccc3cc(F)ccc32)c1 [[3-(5-Fluoro-indol-1-yl)-5-hydroxy-phenyl]-pyridin-3-yl-methanone] | ≥ 50 | ≥ 50 | – |
| CC(=O)Nc1cc(-c2cccc3[nH]ccc23)cc(S(=O)(=O)c2cccnc2)c1 [N-[3-(1H-Indol-4-yl)-5-(pyridine-3-sulfonyl)-phenyl]-acetamide] | < 50 | ≥ 50 | – |
| CC(=O)Nc1cc(-c2nc3ncccc3o2)cc(-c2cccc3[nH]ccc23)c1 [N-[3-(1H-Indol-4-yl)-5-oxazolo[4,5-b]pyridin-2-yl-phenyl]-acetamide] | < 50 | ≥ 50 | – |
| COc1ccc(C(=O)c2cc(O)cc(-c3cccc4[nH]ccc34)c2)cn1 [[3-Hydroxy-5-(1H-Indol-4-yl)-phenyl]-(6-methoxy-pyridin-3-yl)-methanone] | ≥ 50 | ≥ 50 | – |
| CS(=O)(=O)Nc1cc(Nc2cccnc2)cc(-c2cccc3[nH]ccc23)c1 [N-[3-(1H-Indol-4-yl)-5-(pyridin-3-ylamino)-phenyl]-methanesulfonamide] | < 50 | ≥ 50 | – |
| CC(=O)Nc1cc(-c2ccc(Cl)nc2)cc(-c2cccc3[nH]ccc23)c1 [N-[3-(6-Chloro-pyridin-3-yl)-5-(1H-indol-4-yl)-phenyl]-acetamide] | – | – | activation at 0.1 µM [2]: ≥ 50% |
| O=C(c1cccnc1)c1cc(-c2cccc3[nH]ccc23)ccc1O [[2-Hydroxy-5-(1H-indol-4-yl)-phenyl]-pyridin-3-yl-methanone] | ≥ 50 | ≥ 50 | – |
| NC(=O)c1cc(Nc2cccnc2)cc(-c2cccc3[nH]ccc23)c1 [3-(1H-Indol-4-yl)-5-(pyridin-3-ylamino)-benzamide] | ≥ 50 | ≥ 50 | – |
| CC(=O)Nc1cc(SCc2cccnc2)cc(-c2cccc3[nH]ccc23)c1 [N-[3-(1H-Indol-4-yl)-5-(pyridin-3-ylmethylsulfanyl)-phenyl]-acetamide] | < 50 | ≥ 50 | – |
| Oc1cc(Nc2ccccc2)cc(-c2cccc3[nH]ccc23)c1 [3-(1H-Indol-4-yl)-5-phenylamino-phenol] | ≥ 50 | ≥ 50 | – |
| CC(=O)Nc1cc(Br)cc(C(=O)c2cccnc2)c1 [N-[3-Bromo-5-(pyridine-3-carbonyl)-phenyl]-acetamide] | ≥ 50 | ≥ 50 | – |
| COC(=O)Nc1cc(Nc2cccnc2)cc(-c2cccc3[nH]ccc23)c1 [[3-(1H-Indol-4-yl)-5-(pyridin-3-ylamino)-phenyl]-carbamic acid methyl ester] | < 50 | ≥ 50 | – |
| O=COCCOCc1ncccc1Nc1cc(O)cc(-c2cccc3[nH]ccc23)c1 [Formic acid 2-{3-[3-hydroxy-5-(1H-indol-4-yl)-phenylamino]-pyridin-2-ylmethoxy}-ethyl ester] | < 50 | ≥ 50 | – |
| COC(=O)c1cc(Nc2cccnc2)cc(-c2cccc3[nH]ccc23)c1 [3-(1H-Indol-4-yl)-5-(pyridin-3-ylamino)-benzoic acid methyl ester] | ≥ 50 | ≥ 50 | – |

| Structure (SMILES) | activation at 0.1 µM [3] [%] | activation at 1 µM [4] [%] | further results |
| --- | --- | --- | --- |
| N#Cc1ccc(Nc2cc(O)cc(-c3cccc4[nH]ccc34)c2)cn1 [5-[3-Hydroxy-5-(1H-indol-4-yl)-phenylamino]-pyridine-2-carbonitrile] | ≥ 50 | ≥ 50 | – |
| CCC(=O)Nc1cc(C(=O)c2cccnc2)cc(-c2cccc3[nH]ccc23)c1 [N-[3-(1H-Indol-4-yl)-5-(pyridine-3-carbonyl)-phenyl]-propionamide] | < 50 | ≥ 50 | – |
| NC(=O)c1ccc(Nc2cc(O)cc(-c3cccc4[nH]ccc34)c2)cn1 [5-[3-Hydroxy-5-(1H-indol-4-yl)-phenylamino]-pyridine-2-carboxylic acid amide] | ≥ 50 | ≥ 50 | – |
| N#Cc1cc2c(-c3cc(O)cc(Nc4cccnc4)c3)cccc2[nH]1 [4-[3-Hydroxy-5-(pyridin-3-ylamino)-phenyl]-1H-indole-2-carbonitrile] | ≥ 50 | < 50 | – |
| CS(=O)(=O)Nc1cc(C(=O)c2cccnc2)cc(-c2cccc3[nH]c(C#N)cc23)c1 [N-[3-(2-Cyano-1H-indol-4-yl)-5-(pyridine-3-carbonyl)-phenyl]-methanesulfonamide] | ≥ 50 | ≥ 50 | – |
| CC(=O)Nc1cc(C(=O)c2ccncc2)cc(-c2cccc3[nH]ccc23)c1 [N-[3-(1H-Indol-4-yl)-5-(pyridine-4-carbonyl)-phenyl]-acetamide] | ≥ 50 | ≥ 50 | – |
| COc1cc(C(=O)c2cc(NC(C)=O)cc(-c3cccc4[nH]ccc34)c2)ccn1 [N-[3-(1H-Indol-4-yl)-5-(2-methoxy-pyridine-4-carbonyl)-phenyl]-acetamide] | ≥ 50 | ≥ 50 | – |
| Cc1cc(C(=O)c2cc(NS(C)(=O)=O)cc(-c3cccc4[nH]ccc34)c2)cc(Cl)n1 [N-[3-(2-Chloro-6-methyl-pyridine-4-carbonyl)-5-(1H-indol-4-yl)-phenyl]-methanesulfonamide] | ≥ 50 | ≥ 50 | – |
| CS(=O)(=O)Nc1cc(C(=O)c2ccncc2)cc(-c2cccc3[nH]ccc23)c1 [N-[3-(1H-Indol-4-yl)-5-(pyridine-4-carbonyl)-phenyl]-methanesulfonamide] | ≥ 50 | ≥ 50 | – |
| CCOc1ccc(-c2cc(NC(C)=O)cc(-c3cccc4[nH]ccc34)c2)cn1 [N-[3-(6-Ethoxy-pyridin-3-yl)-5-(1H-indol-4-yl)-phenyl]-acetamide] | – | – | activation at 0.1 µM [2]: < 50%; IC50 [2]: 100 to 1000 nM |
| CC(=O)Nc1cc(-c2ccnc(Cl)c2)cc(-c2cccc3[nH]ccc23)c1 [N-[3-(2-Chloro-pyridin-4-yl)-5-(1H-indol-4-yl)-phenyl]-acetamide] | – | – | activation at 0.1 µM [2]: ≥ 50% |
| CS(=O)(=O)Nc1cc(C(=O)c2ccnc(Cl)c2)cc(-c2cccc3[nH]ccc23)c1 [N-[3-(2-Chloro-pyridine-4-carbonyl)-5-(1H-indol-4-yl)-phenyl]-methanesulfonamide] | ≥ 50 | ≥ 50 | – |
| CC(=O)Nc1cc(C(=O)c2ccnc(Cl)c2)cc(-c2cccc3[nH]ccc23)c1 [N-[3-(2-Chloro-pyridine-4-carbonyl)-5-(1H-indol-4-yl)-phenyl]-acetamide] | ≥ 50 | ≥ 50 | – |
| O=C(c1cccnc1)c1cc(-c2cccc3[nH]ccc23)cc(N2CCCC2=O)c1 [1-[3-(1H-Indol-4-yl)-5-(pyridine-3-carbonyl)-phenyl]-pyrrolidin-2-one] | < 50 | ≥ 50 | – |
| O=C(Nc1cc(C(=O)c2cccnc2)cc(-c2cccc3[nH]ccc23)c1)OCc1ccccc1 [[3-(1H-Indol-4-yl)-5-(pyridine-3-carbonyl)-phenyl]-carbamic acid benzyl ester] | < 50 | ≥ 50 | – |
| NC(=O)c1cc(Nc2cnccn2)cc(-c2cccc3[nH]ccc23)c1 [3-(1H-Indol-4-yl)-5-(pyrazin-2-ylamino)-benzamide] | < 50 | ≥ 50 | – |
| COc1cc(C(=O)c2cc(N)cc(-c3cccc4[nH]ccc34)c2)ccn1 [[3-Amino-5-(1H-indol-4-yl)-phenyl]-(2-methoxy-pyridin-4-yl)-methanone] | ≥ 50 | ≥ 50 | – |
